Test results published in patent US20240140953A1, “INHIBITORS OF MENIN-MLL INTERACTION” (BIOMEA FUSION, INC., priority 2018, published 2024).
Read-outs that look alike come from different tables or passages of the source.

Experiments:
Details in all cases: Homo sapiens
RS4-11 (MLL-AF4) = test: LTP assay, CellTiterGlo, T4-T14 (Example 103), RS4-11; format: cell-based
Protocol: (§1) The day of the experiment (T0) all the cell line suspensions were counted by Cell Viability Analyser, Vi-CELL and properly diluted with fresh medium to obtain the cell density reported in the Test System paragraph.
(§2) Cells were tested after 4 passages after thawing.
(§3) 200 μL/well and 150 μL/well of cell suspension were added into the 0.4 μL/well and 0.3 μL/well compound plates, respectively. • Cell plate containing 200 μL/well suspension was incubated at 37° C. in a humidified incubator with 5% CO2. • From each well of the 150 μL/well cell assay plate, 100 μL were harvested and transferred into a 96-well Optiplate (Perkin Elmer, Cat. n. 6005290) and cell viability was measured as described in 4.3 paragraphs (T0).
(§4) After four days in culture (T4) 150 μL/well of fresh medium were added into a new 0.3 μL/well copy compound plate. • From each well of the 200 μL/well cell assay plate: • 100 μL were sampled for the cell viability measurement as described in 4.3 paragraphs (T4). • 50 μL were harvested and added to the 150 μL/well compound plate prepared as described in the first point to dilute 1:4 the cell suspension. • The cell assay plate diluted and containing 200 μL/well suspension were incubated at 37° C. in a humidified incubator with 5% Co2.
(§5) At T7-T11-T14 it was proceeded as described in T4, with the exception that no further cell dilution was carried out at T14.
(§6) Plates containing the samples to be tested were equilibrated at room temperature for approximately 30 min and then 30 μL/well of the Promega CellTiterGlo® reagent were added.
(§7) Contents will be mixed for 5 min on an orbital shaker to induce cell lysis and then incubated at room temperature for an additional 10 min to stabilize the luminescent signal.
(§8) Luminescence was read by using VictorV (Perkin Elmer) multilabel plate reader using the standard protocol for luminescence in 96 well plate.
(§9) Data were expressed as % of inhibition compared to the 0.2% DMSO negative control, and was calculated as follows: […]
(§10) CRCs were analysed by GraphPad and IC50 values were calculated by non-linear regression using 4 parameter-logistic equation. IC50 (μM) values were reported in the final data table.
(§11) The curve fittings were performed leaving free all the parameters. Any constrain were reported in the results table.

MOLM-13 (MLL-AF9) = test: LTP assay, CellTiterGlo, T4-T14 (Example 103), MOLM-13; format: cell-based, human
Protocol: as §1, §2, §3, §4, §5, §6, §7, §8, §9, §10, §11

MV4-11 (MLL-AF4) = test: LTP assay, CellTiterGlo, T4-T14 (Example 103), MV4-11; format: cell-based, human
Protocol: as §1, §2, §3, §4, §5, §6, §7, §8, §9, §10, §11

HL-60 = test: LTP assay, CellTiterGlo, T4-T14 (Example 103), HL-60; format: cell-based
Protocol: as §1, §2, §3, §4, §5, §6, §7, §8, §9, §10, §11

[1] = RS4-11, 96 h, RS4-11 (MLL-AF4), T4 (Day 4), read-out: IC50 T4 (Day 4)
[2] = RS4-11, RS4-11 (MLL-AF4), T7, read-out: IC50 T7
[3] = RS4-11, RS4-11 (MLL-AF4), T11, read-out: IC50 T11
[4] = MOLM-13, 96 h, MOLM-13 (MLL-AF9), T4 (Day 4), read-out: IC50 T4 (Day 4)
[5] = MOLM-13, MOLM-13 (MLL-AF9), T7, read-out: IC50 T7
[6] = MOLM-13, MOLM-13 (MLL-AF9), T11, read-out: IC50 T11
[7] = MOLM-13, MOLM-13 (MLL-AF9), T14, read-out: IC50 T14
[8] = MV4-11, 96 h, MV4-11 (MLL-AF4), T4 (Day 4), read-out: IC50 T4 (Day 4)
[9] = MV4-11, MV4-11 (MLL-AF4), T7, read-out: IC50 T7
[10] = MV4-11, MV4-11 (MLL-AF4), T11, read-out: IC50 T11
[11] = MV4-11, MV4-11 (MLL-AF4), T14, read-out: IC50 T14
[12] = HL-60, 96 h, HL-60, T4 (Day 4), read-out: IC50 T4 (Day 4)
[13] = HL-60, HL-60, T7, read-out: IC50 T7
[14] = HL-60, HL-60, T11, read-out: IC50 T11
[15] = HL-60, HL-60, T14, read-out: IC50 T14

Row | IC50 (RS4-11 (MLL-AF4); [1]) [µM] | IC50 (RS4-11 (MLL-AF4); [2]) [µM] | IC50 (RS4-11 (MLL-AF4); [3]) [µM] | IC50 (MOLM-13 (MLL-AF9); [4]) [µM] | IC50 (MOLM-13 (MLL-AF9); [5]) [µM] | IC50 (MOLM-13 (MLL-AF9); [6]) [µM] | IC50 (MOLM-13 (MLL-AF9); [7]) [µM] | IC50 (MV4-11 (MLL-AF4); [8]) [µM] | IC50 (MV4-11 (MLL-AF4); [9]) [µM] | IC50 (MV4-11 (MLL-AF4); [10]) [µM] | IC50 (MV4-11 (MLL-AF4); [11]) [µM] | IC50 (HL-60; [12]) [µM] | IC50 (HL-60; [13]) [µM] | IC50 (HL-60; [14]) [µM] | IC50 (HL-60; [15]) [µM] | SMILES
1 | > 5 | 1.35 | > 5 | > 5 | > 5 | > 5 | > 5 | > 5 | > 5 | 2.63 | 2.19 | > 5 | > 5 | > 5 | > 5 | Cc1cn(-c2nccc3[nH]c(-c4ccc(NC(=O)Cc5cc(-c6cccnc6)n[nH]5)cc4)nc23)cn1 [Compound 31, N-[4-[4-(4-methylimidazol-1-yl)-1H-imidazo[4,5-c]pyridin-2-yl]phenyl]-2-(3-pyridin-3-yl-1H-pyrazol-5-yl)acetamide]
2 | > 5 | 2.75 | > 5 | > 5 | > 5 | > 5 | > 5 | > 5 | 4.91 | 3.09 | 2.69 | > 5 | > 5 | > 5 | > 5 | Cc1ccc(-c2cc(CC(=O)Nc3ccc(-c4nc5c(N6CCOCC6)nccc5[nH]4)cc3)[nH]n2)cn1 [Compound 32]
